The source of these data is US10966940B2, “Methods for the treatment of tinnitus induced by cochlear excitotoxicity” (INSTITUT NATIONAL DE LA SANTE ET DE LA RECHERCHE MEDICALE …, priority 2004, dated 2021).

One series deals with Long-Evans rats. The series can be described thus: Behavioral (active avoidance) model of tinnitus induced by cochlear excitotoxicity provoked by acute acoustic trauma. It is filed as in vivo, rat. As to the method: We developed and tested an animal model of tinnitus induced by cochlear excitotoxicity, which was provoked by acoustic trauma. […] These considerations mean for example that more animals are required to obtain a sufficient number of tinnitus cases for study and to permit observation of tinnitus over time. As it is unclear whether a case of tinnitus induced by cochlear excitotoxicity is to last or not, it is advisable to conduct studies in its early stages.
The experiments were performed in two stages. First, the hearing loss following acute acoustic trauma as well as the incidence of tinnitus were evaluated with no therapeutic compound administered.
During experiments, animals were caged individually at a constant temperature with a day/night cycle of 12/12 hours. All behavioral tests were performed in the dark phase, the usual period of animal activity, for every animal individually at about the same time each day. Outside the experiments, the animals received water and nutrition ad libidum. A total of 60 animals were used: 30 for the first stage (of which 25 were tested by behavioral techniques and 5 by electrophysiology), and 30 for the second stage with 10 for each pharmaceutical compound tested.
Acoustic trauma was induced by a continuous pure tone of 6 kHz generated by a waveform synthesizer (Hewlett-Packard 8904A). The animals were anesthetized and exposed to 130 dB sound pressure level (SPL) for 20 minutes, which was routed through a programmable attenuator and presented to the ears in free field via a JBL 075 earphone positioned 10 cm in front of the animal's head. Sound level was measured using a calibrated Bruel and Kjaer microphone (4314) and a Bruel and Kjaer calibrating amplifier (2606).
Behavioral conditioning and testing Animals were conditioned to achieve active avoidance (Guitton et al., J. of Neuroscience 23 (9): 3944-3952 (2003)). Behavioral testing consisted of the performance of a task whenever a sound was produced in a conditioning box with an electrical floor and a climbing pole. […] The unconditional stimulus consisted of an electric shock to the feet of the animals (3.7 mA) during maximally 30 seconds. Interstimulus intervals were 1 second. The electric shocks were stopped by the investigator once the animal correctly climbed onto the pole. Intervals between trials were at least one minute long.
The score was defined as the animal's performance, measured by the number of cases when it climbed correctly onto the pole in response to the sound. As soon as an animal had reached a score of at least 80% in three consecutive sessions, it was considered successfully conditioned and employed in the experiments.
Experiments were conducted daily with measurements of both score and false positive responses during one session of 10 minutes with 10 trials in total. False positive responses were climbings onto the pole between trials without any acoustic stimulation, i.e. during periods of silence. They can be interpreted as the perception of tinnitus, as the animals are performing the task of climbing onto the pole as if they were hearing the stimulus (Guitton et al., J. of Neuroscience 23 (9): 3944-3952 (2003)). Sound stimuli were randomized, and electrical footshocks were only delivered if the animals didn't climb onto the pole in response to sound.
Animals were anaesthetized with a single-dose i.p. injection of 0.3 ml/kg of pentobarbital at 6% (Sanofi) and operated under aseptic conditions right after the first behavioral testing (day 0). The two bullae were opened through a posterior auricular surgical procedure (dorsal approach). After exposure of the two cochleas, gelfoam (Gelita tampon, B. Braun Medical AG) impregnated with 2.5 μl artificial perilymph containing the pharmaceutical compounds was placed on the each of the round windows of the two cochleas. The concentration of all three pharmaceutical compounds used was 50 μM.

Series [1] has as its system guinea pigs. The series can be described thus: ESA noise trauma model: ensemble spontaneous activity of the cochlear nerve. It is filed as in vivo, guinea pig. To be noted: for regular ESA peak centered at 900 Hz to 1 kHz: treated ear; for ESA spectral peak centered at 200 to 250 Hz (tinnitus): 50 microM in 0.7% hyaluronic acid gel, round window. As to the method:
We developed therefore an animal model with guinea pigs that were exposed to intensive noise, producing acute acoustic trauma, and whose ESA was recorded to control for the absence or presence of tinnitus (“ESA noise trauma model”). The possibility to record tinnitus by electrophysiological tests provides an excellent tool for evaluating the therapeutic benefits of pharmaceutical compounds in suppressing tinnitus. The development of the ESA noise trauma model required extensive experimentation with different noise trauma protocols as well as the development and testing of specific measurement tools for extended observation periods in vivo.
The experiment was performed in two stages. First, guinea pigs were exposed to intense noise stimulation in order to provoke acute acoustic trauma (day 0). Auditory thresholds and ESA were determined and then followed further by repeated electrophysiological measurements. If persisting tinnitus could still be detected after at least 5 days, an NMDA receptor antagonists (ketamine or 7-CK) was applied in a hyaluronic acid formulation onto the round window membrane of the cochlea. […] After treatment with the NMDA receptor antagonists, electrophysiological measurements of hearing thresholds and ESA continued for at least 10 days. The primary endpoints of the study were to test whether the pharmacological treatment could suppress tinnitus even after its onset, and whether such treatment effect was persisting or not. As a control, contralateral ears were exposed to the same noise exposure and followed by electrophysiology.
Experiments were performed on adult pigmented guinea pigs (250 to 300 grams at study begin). During experiments, animals were caged individually. Outside the experiments, the animals received water and nutrition ad libidum. […] In two contralateral left ears, tinnitus was observed, so that they could be used as a control group.
Acoustic trauma was induced by a continuous pure tone of 6 kHz generated by a waveform synthesizer (Hewlett-Packard 8904A). […] Sound level was measured using a calibrated Bruel and Kjaer microphone (4314) and a Bruel and Kjaer calibrating amplifier (2606).
A teflon-coated platinum electrode implanted onto the round window membranes of both cochleas (with reference electrodes placed in a neck muscle) measured the ESA and the compound action potential of the auditory nerve (CAP). […]
The ESA was recorded from the platinum wire placed in the round window niche. […]
The ESA was measured just before acute acoustic trauma and 20 minutes following noise exposure on day 0, and then repeatedly for at least 10 days as described above. […] Subsequently, ESA was measured again on the first day after treatment (T+1) as well as 10 days after treatment (T+10). […]

The test system of series [2] is PCP binding site of the NMDA receptor. To be noted: higher affinity than (R)-ketamine; cited from earlier work.
For series [3], the system named is guinea pigs. The series can be described thus: CAP audiogram (hearing threshold) in ESA noise trauma model. It is filed as in vivo, guinea pig. To be noted: local administration onto round window membrane. On the procedure: A teflon-coated platinum electrode implanted onto the round window membranes of both cochleas (with reference electrodes placed in a neck muscle) measured the ESA and the compound action potential of the auditory nerve (CAP). The surgery was performed using a posterior auricular surgical procedure (dorsal approach) prior to noise exposure. The reference electrode and the round window electrode were soldered to a plug fixed on the skull using dental cement (Unifast Trad, GC Corporation).
The CAP was measured concomitantly with ESA measurements using the same electrode. Tone bursts (with a duration of 9 ms and a rise/fall cycle of 1 ms, 10 per second) generated by an arbitrary function generator (LeCroy Corp., model 9100R) were applied to the animal's ear in free filed via a JBL 075 earphone. CAP audiograms were obtained by varying burst levels from 0 to 100 dB SPL in steps of 5 dB at the frequencies 2, 4, 6, 8, 10, 12, 16, 20, and 26 kHz. Auditory nerve responses were amplified (Tektronic TM 503; gain 2000), filtered (3.5 kHz low pass) and averaged on a PC (Dimension Pentium, Dell). CAP amplitudes were measured peak-to-peak between the first negative depression N1 and the subsequent positive wave P1. The CAP threshold was defined as the sound intensity (in dB SPL) needed to elicit a measurable response (greater than 5 μV). […]

The test system of another series is NMDA receptors. The note with it: local administration; cited from earlier work.
Series [4] concerns salicylate-induced tinnitus. The note with it: cited from earlier work; for number of false positives after delivery to the cochleas via the round window membrane: salicylate-treated animals; for false positive responses (jumps in absence of sound) induced by the substance: tinnitus induction.
For the next series, the system named is tinnitus. The note with it: systemic administration; cited from earlier work.
For series [5] the following is noted: in vivo; cited from earlier work.
Series [6] deals with NR1 subunit of the cochlear NMDA receptor. The note with it: 350 mg/kg i.p. twice over 24 hours; sample after 24 hours.
Experimental: The salicylate dose used is known to induce tinnitus (Guitton et al., J. of Neuroscience 23 (9): 3944-3952 (2003)). Another group of 3 animals served as control and was injected i.p. with a NaCl 0.9% solution of the same volume as salicylate treated animals. Samples were obtained after 24 hours in the salicylate and control groups and 24 hours respectively 5 days post incident for the acoustic trauma group.
Tissues were harvested in cold PBS and homogenized in sample buffer, and the lysates were centrifuged to remove detergent-insoluble material and separated on a 10% SDS-PAGE in Tris/Tricine. After gel electrophoresis, proteins were transferred electrophoretically to nitrocellulose membranes (PVDF transfer membrane Hybond-P, Amersham Pharmacia Biotech, USA). Blots were first incubated with a primary anti-antibody against the NMDA NR1 receptor subunit (1/1000 dilution; rabbit polyclonal antibody, Chemicon international, USA), and with a primary antibody anti-actin (1/50000 dilution, mouse monoclonal anti-β-actin, Sigma, USA) overnight at 4° C. To verify that the molecular weight of the NR1 subunit is identical in both brain and cochlea, immunoblots from the brain of control animals were performed. […] Image scanning of Western blots was then performed for semi-quantification of expression levels of NR1 and actin proteins using Biorad Fluor-S software (Quantity one).
The subject of series [7] is sensory outer hair cells (OHC) and inner hair cell (IHC) synaptic complex. The note with it: 350 mg/kg i.p. twice a day for 2 days.
Experimental: After decapitation of the rats under deep anaesthesia (pentobarbital 50 mg/kg), the cochleas were removed from the temporal bone and perfused with a fixative solution of 2.5% glutaraldehyde in 0.1 M phosphate-buffered saline (PBS), pH 7.3. They were then processed either for scanning (SEM) or transmission electron (TEM) microscopy. For SEM, the otic capsule was dissected out and the stria vascularis, tectorial, and Reissner's membranes were removed. After rinsing in PBS (pH 7.3) the samples were dehydrated in a graded series of ethanol (30-100%), critical point-dried in CO2, coated with gold palladium, and examined using a Hitachi S4000 microscope. For TEM, the cochleas were postfixed in a 1% aqueous solution of osmium tetroxide for 2 hours, rinsed in phosphate buffer, dehydrated in a graded series of ethanol (30-100%), and embedded in Epon resin. Transverse ultrathin sections of the organ of Corti were taken from the apical half of the cochlea. The sections, mounted on formvar-coated or mesh grids, were stained with uranyl acetate, and lead citrate and examined using a Hitachi 7100 microscope.

As to `CN[C@@]1(c2ccccc2Cl)CCCCC1=O` (stereo in doubt) [S-(+)-Ketamine, 2-(2-chlorophenyl)-2-(methylamino)-cyclohexanone], the “number of false positives” value in the series on Long-Evans rats (group 1 (no increase), days 0 and 1) stood at 0.22±0.22 false positives; in the series with Long-Evans rats (group 2 (reversible increase), day 0), 0.2±0.2 false positives; in the series on Long-Evans rats (group 2 (reversible increase), day 1), 5±0.48 false positives. Further, the “recovery of behavioral score after trauma, in words” value with Long-Evans rats (local administration to round window membrane, 50 μM) is given as “improvement was slower than in untreated animals”. The “effect on tinnitus (false positives), in words” value with Long-Evans rats (local administration to round window membrane, 50 μM, before acoustic trauma) is “only cases of transient tinnitus could be observed”. The “number of animals with no increase in false positives (group 1)” value in the series on Long-Evans rats (of 10 animals per compound) worked out at 5. Also, in the series with Long-Evans rats (of 10 animals per compound), the “number of animals with only reversible increase in false positives (group 2, transient tinnitus)” value is 5. In addition, the “average score at stabilization” value with Long-Evans rats (rat, in vivo) was 89%±2.3. Further, the “regular ESA peak centered at 900 Hz to 1 kHz” value with guinea pigs [1] (10 days after treatment (T+10)) is listed as “fully recovered”; in the series with guinea pigs [1] (day T1 after treatment) it was “still appeared, yet diminished”. The “ESA spectral peak centered at 200 to 250 Hz (tinnitus)” value with guinea pigs [1] (day T1 after treatment, given after onset of persisting tinnitus) is “completely disappeared”; in the series on guinea pigs [1] (day T10 after treatment), “remained absent”. In addition, the “affinity relative to (R)-ketamine” value in [2] is on record as 3-4 fold. Moreover, the “permanent threshold shift (PTS, hearing loss) after treatment” value in the series on guinea pigs [3] is “not changed”.

As for `N[C@H](CCCP(=O)(O)O)C(=O)O` [D-AP5, D-2-amino-5-phosphonopentanoic acid], the “functional recovery and regrowth of auditory dendrites” value with NMDA receptors was “delayed the functional recovery and the regrowth of auditory dendrites”.

In the case of `C[C@]12N[C@H](Cc3ccccc31)c1ccccc12` [MK-801, dizocilpine], the “number of false positives after delivery to the cochleas via the round window membrane” value in series [4] is listed as “decreased significantly”.

Turning to `C1C2CC3CC1CC(C2)C3` [adamantane], in the series with tinnitus, the tinnitus during treatment entry is “reduction in tinnitus during treatment”.

Consider `CCN(CC)CCn1c(=O)c(Cc2ccc(OC)cc2)nc2ccccc21` [caroverine], for which the “intracochlear concentration, local versus systemic administration” value in series [5] is recorded as “higher intracochlear concentrations”.

Regarding `CC1CCCCC1(c1cccs1)N1CCCCC1` (stereo not drawn) [gacyclidine], in series [4], the “number of false positives after delivery to the cochleas via the round window membrane” value was “decreased significantly”.

In the case of `Cc1cccc(Nc2ccccc2C(=O)O)c1C` [mefenamate], the “false positive responses (jumps in absence of sound) induced by the substance” value in [4] was “increased the number of false positive responses”.

Consider `O=C([O-])c1ccccc1O.[Na+]` [salicylate, sodium salicylate], for which, in series [6], the “NR1 NMDA receptor subunit expression, higher than control animals” value was 4%. The “stereocilia of OHC and IHC” value in series [7] (SEM) was “intact”. The “ultrastructure of the IHC synaptic complex” value in series [7] (TEM) is on record as “No ultrastructural abnormalities”. In addition, the “false positive responses (jumps in absence of sound) induced by the substance” value in series [4] was “significant increase”.
